Usually DC50 stands for the concentration giving 50% degradation. As a reminder, the Dmax is the greatest extent of degradation seen.

For 16 compounds, DC50 and Dmax results are on record in patent publication US20240279202A1 (NURIX THERAPEUTICS, INC., priority 2021, published 2024).

The target of this assay is T1, ITK (Homo sapiens, UniProt Q08881).
T1 sequence (Q08881 1-620): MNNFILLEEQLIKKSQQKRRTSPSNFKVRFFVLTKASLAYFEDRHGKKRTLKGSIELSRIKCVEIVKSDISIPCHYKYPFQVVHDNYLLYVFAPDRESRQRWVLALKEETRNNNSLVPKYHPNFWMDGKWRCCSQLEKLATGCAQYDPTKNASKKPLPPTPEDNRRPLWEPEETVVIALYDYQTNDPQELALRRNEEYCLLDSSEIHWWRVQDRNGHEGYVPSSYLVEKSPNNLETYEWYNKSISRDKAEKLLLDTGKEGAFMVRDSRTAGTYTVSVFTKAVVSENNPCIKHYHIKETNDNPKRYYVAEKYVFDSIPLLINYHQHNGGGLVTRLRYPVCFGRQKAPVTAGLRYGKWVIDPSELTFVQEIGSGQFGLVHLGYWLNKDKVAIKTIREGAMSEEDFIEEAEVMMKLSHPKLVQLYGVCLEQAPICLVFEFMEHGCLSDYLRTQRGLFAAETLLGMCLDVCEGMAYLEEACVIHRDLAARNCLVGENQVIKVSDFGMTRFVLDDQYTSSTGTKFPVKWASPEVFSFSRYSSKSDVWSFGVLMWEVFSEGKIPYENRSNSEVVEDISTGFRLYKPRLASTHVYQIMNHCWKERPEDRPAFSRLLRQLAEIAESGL
In words: ITK degradation HiBiT assay. Type of assay: cell-based. More on the design: expressed in transfected cells; host or cells: Molt4 (ATCC CRL-1552), monoclonal clone 1C10, engineered to carry the HiBiT tag. The note with it: 4 hrs; for DC50: C-terminal HiBiT-tagged Molt4 cells; for Dmax: MOLT-4, C-terminal HiBiT-tagged Molt4 cells. As to the method:
Itk Degradation Hibit Assay
Compounds provided herein were assayed in vitro with ITK HiBit cell lines. Compound dilution series (11-point, 5 fold dilutions in DMSO, columns 2-12 with replicate in rows A/B, C/D, E/F, G,H at 2000× the final required concentrations were prepared in 96 well plates (Falcon, cat. no. 353077). Column 1, rows A-H were control DMSO. The 2000× solutions ranged from 2 mM to 1.024 nM (final assay concentration range 1 μM to […]). The 2000× solutions were added to cells in […], for a final DMSO concentration of 0.5% and final assay compound concentration of 1×. For the cells, C-terminal HiBiT-tagged Molt4 cells (ATCC CRL-1552, monoclonal cell line clone 1C10) were plated at 1×10^6 cells/mL, 100 μL/well ([…]) in complete RPMI (10% FBS, 1% L-glutamine). The cells were incubated with compound 10 and compound 17 for 4 hrs at […]/6% CO2.
Following incubation, 100 μL of complete Nano-Glo HiBiT Lytic Detection Reagent (Nano-Glo HiBiT Lytic Buffer with 1:50 Nano-Glo HiBiT Lytic Substrate and 1:100 LgBiT Protein; Promega cat. no. N3040) was added. Cells were further incubated for 10 min at room temperature (RT). Luminescence units (LU) were read on an EnVision plate reader (Perkin Elmer, 0.1 sec per well). Percent ITK remaining per sample was calculated as follows: […]
Using Graphpad Prism, % ITK remaining values were plotted as a function of compound concentration. To determine DC50 and Dmax values, resulting curves were fit to the Prism curve-fitting equation “log(inhibitor) vs response—Variable slope (four parameters)” (reported best fit value IC50 used as DC50). ITK was measured with antibody-based MSD (Meso-Scale Discovery) assays shown below.
(In general: HiBiT is a short tag that completes a luciferase, so light tracks the accessible tagged protein.)

As for `C[C@@]12Cc3[nH]nc(C(=O)Nc4cnn(C5CCN(CC6CCN(c7ccc(N8CCC(=O)NC8=O)cc7)CC6)CC5)c4)c3C[C@@H]1C2(F)F` [Compound 207, (4aS,5aR)-N-(1-(1-((1-(4-(2,4-dioxotetrahydropyrimidin-1(2H)-yl)phenyl)piperidin-4-yl)methyl)piperidin-4-yl)-1H-pyrazol-4-yl)-5,5-difluoro-5a-methyl-1,4,4a,5,5a,6-hexahydrocyclopropa[f]indazole-3-carboxamide], half-maximal degradation (DC50) was put at 0.49 nM and the Dmax worked out at 65%.

The compound `C[C@@]12Cc3[nH]nc(C(=O)Nc4cnn(C5CCN(CC6(F)CCN(c7ccc(C8CCC(=O)NC8=O)cc7)CC6)CC5)c4)c3C[C@@H]1C2(F)F` (stereo partly drawn) [Compound 97, (4aS,5aR)-N-(1-(1-((1-(4-(2,6-dioxopiperidin-3-yl)phenyl)-4-fluoropiperidin-4-yl)methyl)piperidin-4-yl)-1H-pyrazol-4-yl)-5,5-difluoro-5a-methyl-1,4,4a,5,5a,6-hexahydrocyclopropa[f]indazole-3-carboxamide] registered a DC50 of 2.6 nM and a Dmax of 88%. For `CC1(C)CCc2c(C(=O)Nc3cnn([C@H]4CC[C@H](C(=O)N5CCN(c6ccc(C7CCC(=O)NC7=O)cc6)CC5)CC4)c3)n[nH]c2C1` (mixture of isomers) [Compound 176], the Dmax stood at 76%. On to `CN(CC1CCN(C(=O)c2ccc3cc(-c4n[nH]c5c4CCC(C)(C)C5)[nH]c3c2)CC1)C1CCN(c2ccc(C3CCC(=O)NC3=O)cn2)CC1` (stereo not shown) [Compound 63, 3-(6-(4-(((1-(2-(6,6-dimethyl-4,5,6,7-tetrahydro-1H-indazol-3-yl)-1H-indole-6-carbonyl)piperidin-4-yl)methyl)(methyl)amino)piperidin-1-yl)pyridin-3-yl)piperidine-2,6-dione], for which half-maximal degradation (DC50) was put at 0.003 nM and the Dmax stood at 80%.

As for `C[C@@]12Cc3[nH]nc(C(=O)Nc4cnn(C5CCN(CC6CCN(c7ncc(C8CCC(=O)NC8=O)cn7)CC6)CC5)c4)c3C[C@@H]1C2(F)F` (mixture of isomers) [Compound 115, (4aS,5aR)-N-(1-{1-[(1-{5-[(3RS)-2,6-dioxopiperidin-3-yl]pyrimidin-2-yl}piperidin-4-yl)methyl]piperidin-4-yl}-1H-pyrazol-4-yl)-5,5-difluoro-5a-methyl-1H,4H,4aH,5H,5aH,6H-cyclopropa[f]indazole-3-carboxamide], half-maximal degradation (DC50) was put at 0.391 nM and the Dmax was found to be 84%.

`CC1(C)CCc2c(-c3cc4ccc(C(=O)N5CCN(CC6CCN(c7ccc(C8CCC(=O)NC8=O)cn7)CC6)C(C)(C)C5)cc4[nH]3)n[nH]c2C1` (stereo not shown) [Compound 133, 3-(6-(4-((4-(2-(6,6-dimethyl-4,5,6,7-tetrahydro-1H-indazol-3-yl)-1H-indole-6-carbonyl)-2,2-dimethylpiperazin-1-yl)methyl)piperidin-1-yl)pyridin-3-yl)piperidine-2,6-dione] came in with a DC50 of 1.6 nM and a Dmax of 86%. Compound `CN(c1ccc2cc(-c3n[nH]c4c3C[C@@H]3C(F)(F)[C@]3(C)C4)[nH]c2c1)C(=O)[C@H]1C[C@@]2(CCN(c3ccc4c(c3)C(=O)N([C@H]3CCC(=O)NC3=O)C4=O)C2)C1` (racemic) [Compound 71a, (2r,4r)-N-[2-[(4aS,5aR)-5,5-difluoro-5a-methyl-1H,4H,4aH,6H-cyclopropa[f]indazol-3-yl]-1H-indol-6-yl]-6-[2-[(3RS)-2,6-dioxopiperidin-3-yl]-1,3-dioxoisoindol-5-yl]-N-methyl-6-azaspiro[3.4]octane-2-carboxamide] showed a Dmax of 53%. Consider `C[C@H]1CN(CC2CCN(c3ccc(C4CCC(=O)NC4=O)cn3)CC2)CCN1C(=O)c1ccc2cc(-c3n[nH]c4c3CCC(C)(C)C4)[nH]c2c1` (stereo partly drawn) [Compound 130, 3-(6-(4-(((S)-4-(2-(6,6-dimethyl-4,5,6,7-tetrahydro-1H-indazol-3-yl)-1H-indole-6-carbonyl)-3-methylpiperazin-1-yl)methyl)piperidin-1-yl)pyridin-3-yl)piperidine-2,6-dione], for which the DC50 stood at 5.5 nM and the Dmax was determined as 85%.

In the case of `C[C@@]12Cc3[nH]nc(C(=O)Nc4cnn(C5CN(CC6CCN(c7ccc(C8CCC(=O)NC8=O)cc7)CC6)C5)c4)c3C[C@@H]1C2(F)F` (stereo partly drawn) [Compound 91, (4aS,5aR)-N-(1-(1-((1-(4-(2,6-dioxopiperidin-3-yl)phenyl)piperidin-4-yl)methyl)azetidin-3-yl)-1H-pyrazol-4-yl)-5,5-difluoro-5a-methyl-1,4,4a,5,5a,6-hexahydrocyclopropa[f]indazole-3-carboxamide], the DC50 was found to be 0.24 nM and the maximal degradation (Dmax) was 85%. `C[C@@]12Cc3[nH]nc(-c4cc5cc(F)c(C(=O)N6CCN(CC7CCN(c8ccc([C@H]9CCC(=O)NC9=O)cc8)CC7)CC6)cc5[nH]4)c3C[C@@H]1C2(F)F` (single isomer, unassigned) [Compound 220] displayed a DC50 of 1.4 nM and a Dmax of 89%. The compound `C[C@@]12Cc3[nH]nc(-c4cc5ccc(N6CCC7(CCN(C(=O)C8CCN(c9ccc(C%10CCC(=O)NC%10=O)cn9)CC8)CC7)C6=O)cc5[nH]4)c3C[C@@H]1C2(F)F` (stereo partly drawn) [Compound 24, 3-(6-(4-(2-(2-((4aS,5aR)-5,5-difluoro-5a-methyl-1,4,4a,5,5a,6-hexahydrocyclopropa[f]indazol-3-yl)-1H-indol-6-yl)-1-oxo-2,8-diazaspiro[4.5]decane-8-carbonyl)piperidin-1-yl)pyridin-3-yl)piperidine-2,6-dione] registered a DC50 of 0.01 nM.

Take `C[C@@]12Cc3[nH]nc(-c4cc5cc(F)c(C(=O)N6CCN(CC7CCN(c8ccc(C9CCC(=O)NC9=O)cc8)CC7)CC6)cc5[nH]4)c3C[C@@H]1C2(F)F` (stereo partly drawn) [Compound 138, 3-(4-(4-((4-(2-((4aS,5aR)-5,5-difluoro-5a-methyl-1,4,4a,5,5a,6-hexahydrocyclopropa[f]indazol-3-yl)-5-fluoro-1H-indole-6-carbonyl)piperazin-1-yl)methyl)piperidin-1-yl)phenyl)piperidine-2,6-dione]: it took 0.076 nM to reach half-maximal degradation (DC50) and the Dmax was determined as 83%. `C[C@@H](C(=O)N(C)c1cc2[nH]c(-c3n[nH]c4c3CCC(C)(C)C4)cc2cc1F)N1CCN(CC2CCN(c3ccc(C4CCC(=O)NC4=O)cn3)CC2)CC1` (stereo partly shown) [Compound 188] came in with a maximal degradation (Dmax) of 85%. The compound `CC1(C)CCc2c(-c3cc4cc(F)c(C(=O)N5CCN(CC6CCN(c7ccc(C8CCC(=O)NC8=O)cn7)CC6)CC5)cc4[nH]3)n[nH]c2C1` (stereo not shown) [Compound 136, 3-(6-(4-((4-(2-(6,6-dimethyl-4,5,6,7-tetrahydro-1H-indazol-3-yl)-5-fluoro-1H-indole-6-carbonyl)piperazin-1-yl)methyl)piperidin-1-yl)pyridin-3-yl)piperidine-2,6-dione] came in with a DC50 of 0.45 nM and a Dmax of 80%. In the same order, the values of `C[C@@]12Cc3[nH]nc(C(=O)Nc4cnn([C@H]5CCN(C[C@@H]6CCN(c7ccc(C8CCC(=O)NC8=O)cc7)C6)C[C@@H]5F)c4)c3C[C@@H]1C2(F)F` (stereo partly drawn) [Compound 100, (4aS,5aR)-N-(1-((3S,4S)-1-(((3S)-1-(4-(2,6-dioxopiperidin-3-yl)phenyl)pyrrolidin-3-yl)methyl)-3-fluoropiperidin-4-yl)-1H-pyrazol-4-yl)-5,5-difluoro-5a-methyl-1,4,4a,5,5a,6-hexahydrocyclopropa[f]indazole-3-carboxamide] are 1.7 nM and 86%.

On to `C[C@@]12Cc3[nH]nc(-c4cc5ccc(C(=O)N6CCN(CC7CCN(c8ccc(C(=O)N[C@H]9CCC(=O)NC9=O)nc8)CC7)CC6)cc5[nH]4)c3C[C@@H]1C2(F)F` [Compound 139, 5-(4-((4-(2-((4aS,5aR)-5,5-difluoro-5a-methyl-1,4,4a,5,5a,6-hexahydrocyclopropa[f]indazol-3-yl)-1H-indole-6-carbonyl)piperazin-1-yl)methyl)piperidin-1-yl)-N—((S)-2,6-dioxopiperidin-3-yl)picolinamide], for which the DC50 was 0.8 nM and the Dmax was determined as 81%.
